Read-outs that look alike come from different tables or passages of the source.
How the values were obtained:
Zajdel ascitic hepatoma = assay: Survival of rats with implanted Zajdel ascitic hepatoma, comparison with 6-mercaptopurine (Example 8); type: in vivo, female Wistar rats; details: for Period of survival (% of control): Wistar rats
Text: (§1) The antineoplastic activity of the compounds of the invention has been investigated by testing the compounds of the chemical group "in vivo" against experimental rodent tumors such as Crocker's sarcoma (S180), solid-type Ehrlich carcinoma (STE), kreb's ascites tumor (Kr2), all maintained in mice H, Gardner lymphosarcoma (LsG, C3H mice), P388 and L1210 leukemias (DBA2 mice), Zajdela ascites hapatoma (ZAH, Wistar rats), Yoshida ascites reticulosarcoma (Y, Wistar rats) and B16 melanoma (C57B16 mice) in experiments according to Jelinek, V. (Neoplasma 12, 469 (1969); ibid. 7, 146 (1960) and "in vitro" experiments using radioactive precursors of nucleic acids and proteins according to Miko, M. et al. (Cancer Res. 39, 4242 (1979); Neoplasma 26, 449 (1979); ibid. 16, 161--1969) with minor modifications (Mattern J.: Studies on the Drug Sensitivity of Short Term Cultured Tumor Cell Suspensions. In "Human Tumors in Short Term Culture" (Dendy, P. P. ed.), p. 301, Academic Press 1976). Therapeutic synergism has been studied by the method of Carter, W. H. et al. (cf. Cancer Res. 42, 2963--1982).
(§2) Fifty infantile female Wistar rats weighing approximately 60 g are divided into five groups: one control and four experimental ones, 10 animals each. A lethal dose of the tumor ascites from Zajdel ascitic hepatoma is implanted intraperitoneally in all the animals. The experimental groups are treated with the substance Ia in water suspension. The suspension contains the substance Ia in such an amount that a dose of 0.4 or 0.2 ml of the suspension p.o. is equal to a dose of 200 or 100 mg Ia/Kg. This dose is applied to the experimental animals once a day, five times altogether, starting on the first day after the implantation.

[1] = tested on: Yoshida ascitic tumor cells; assay: Cytotoxicity in vitro: initial velocity of 3H/14C precursor incorporation in Yoshida ascitic tumor cells (Example 11); type: cell-based; details: for IC50: Rattus norvegicus, YOSHIDA
Text: as §1
In analogous experiments, the degree of influence on the initial velocity of the incorporation of ^3 H from 5-iodo-2'-deoxy-(6-^3 H)uridine or that of ^14 C from a mixture of L-(U-^14 C)-aminoacids to the fraction of Yoshida ascitic tumor cells insoluble in trichloroacetic acid serves as the measure of cytotoxicity. The value IC50 is the concentration of a substance that reduces the initial velocity of the ^3 H or ^14 C incorporation down to 50% of the noninfluenced control cells.

[2] = Toxicity and tolerability by oral route; type: in vivo, small rodents; rat; mouse; man
Text: The compounds described herein can be administered to suitable biological subjects, particularly mammals, for their therapeutic antitumor effects, by conventional modes of administration alone, but preferably as active ingredients with any conventional suitable non-toxic pharmaceutical carrier, dissolved or suspended, for example, in water, saline, polyethylene or polypropylene alcohols, etc. The administration is preferably by the oral route. […]. The dosage administered will be dependent upon the type of tumor for which treatment is desired, the type of biological subject involved, weight, body surface, localization of the tumor, its morphological type, the frequency of treatment, individual tolerance and responsiveness of each subject, etc; for example, by oral route, the prolonged administration of 100, 200 mg/kg daily appears to be well tolerated both in the rat and in the mouse. The assessment drawn from the biological tests is that doses of 20 mg/kg (e.g. about 740 mg/m^2) may be regarded as well tolerated in man.

Yoshida ascitic sarcoma = assay: Therapeutic synergism with Benfluron, survival of rats with Yoshida ascitic sarcoma (Example 9); type: in vivo, female Wistar rats; details: for Average period of survival (days): geometric average (fiducial limits P=0.95)
Text: as §1
One hundred and twenty seven infantile female Wistar rats weighing 50-60 g are divided into sixteen groups: one control group of 25 animals and fifteen experimental groups of 6 to 7 animals. A lethal dose of the tumor ascites from Yoshida ascitic sarcoma is implanted intraperitoneally in all the animals. The experimental groups are treated with the substance Ia in water suspension, water solution of a cytostatic Benfluron (CAS 80427-58-3), or a combination of both the substances. The suspension or solution contains the substances in such a concentration that doses of 0.4 or 0.2 and 0.1 ml of the suspension/solution p.o. are equal to doses of 200 or 100 and 50 mg Ia/kg or to doses of 160, 80 or 40 mg of Benfluron/kg. Doses of the substance Ia are administered to the experimental animals once a day, four times altogether, starting on the first day after the tumor implantation. Benfluron is administered only once, on the fourth day after the tumor implantation, 7 hours after the last dose of the substance Ia.

Yoshida tumor [3] = assay: Survival of rats with implanted Yoshida tumor (Example 6); type: in vivo, female Wistar rats; details: Wistar rats
Text: as §1
(§3) Additionally, the compounds of the present invention are useful in increasing survival time of the suitable biological subjects, namely mice and rats bearing tumors STE, ZAH and/or Y: because of the lethal nature of the test system employed, the antitumor effect of the compounds is illustrated by a side comparison of the survival time of treated animals (survival for a longer time) with the untreated control groups of animals (cf. Examples 5, 6, and 7). In these typical experiments, ten animals are in the experimental groups, and the treated groups of animals survive for a longer time than the untreated controls.
as §2

Ehrlich tumor (STE) = assay: Antitumor activity against implanted Ehrlich tumor (STE) in mice, tumor weight (Example 4); type: in vivo, female mice H; details: mice H
Text: as §1
Sixty female mice H weighing approximately 20 g are divided into three groups: one control group and two experimental groups of 20 animals each. A lethal dose of the Crocker tumor (S180) homogenate is implanted subcutaneously in all the animals. The experimental groups are treated with the substance Ia in water suspension. The suspension contains the substance Ia in such an amount that a dose 0.4 or 0.2 ml of the suspension p.o. is equal to a dose 200 or 100 mg Ia/kg. This dose is administered to the experimental animals once a day, eight times altogether, starting on the fifth day after the implantation. On the fourteenth day after the implantation, a half of the animals in each group is sacrificed in ether anaesthesia, and tumors are removed and weighed. The remaining animals are left to monitor the time of death.

Yoshida tumor [4] = assay: Survival of rats with implanted Yoshida tumor (Example 7); type: in vivo, female Wistar rats; details: Wistar rats
Text: as §1, §3, §2

SMILES: O=C(NCCCl)Sc1ncnc2nc[nH]c12 [Substance Ia, 6-[N-(2-Chloroethyl)carbamoyl]thiopurine]
- Period of survival (% of control) (Zajdel ascitic hepatoma; p.o. 5 × 100 mg/kg (Example 8)): 120 % of control
- Period of survival (% of control) (Zajdel ascitic hepatoma; p.o. 5 × 200 mg/kg (Example 8)): 128 % of control
- antitumor effect / average period of survival vs non-treated control (Zajdel ascitic hepatoma; in words (Example 8)): statistically significantly higher average period of survival
- IC50 ([1]; precursor 5-iodo-2'-deoxy(6-3H)uridine, read-out: IC50 (initial velocity of 3H incorporation)): 25 µM
- IC50 ([1]; precursor L-(U-14C)aminoacids, read-out: IC50 (initial velocity of 14C incorporation)): 26 µM
- effectiveness vs thioguanine and/or 6-mercaptopurine ([1]; Yoshida ascites tumor cells, in words): more effective
- LD50 ([2]; in vivo, small rodents, oral route): ≥ 3000 mg/kg
- toxicity ([2]; in words): practically non-toxic
- Average period of survival (% of control) (Yoshida ascitic sarcoma; Ia 4 × 50 mg/kg p.o.): 125 % of control
- Average period of survival (days) (Yoshida ascitic sarcoma; Ia 4 × 50 mg/kg p.o.): 9.20 (7.6; 11.1) days
- Average period of survival (% of control) (Yoshida ascitic sarcoma; Ia 4 × 100 mg/kg p.o.): 149 % of control
- Average period of survival (days) (Yoshida ascitic sarcoma; Ia 4 × 100 mg/kg p.o.): 10.94 (9.0; 13.3) days
- Average period of survival (% of control) (Yoshida ascitic sarcoma; Ia 4 × 200 mg/kg p.o.): 121 % of control
- Average period of survival (days) (Yoshida ascitic sarcoma; Ia 4 × 200 mg/kg p.o.): 8.86 (7.4; 10.7) days
- survival vs control group (Yoshida ascitic sarcoma; Yoshida ascitic sarcoma, in words, over 29 days): survive longer
- Period of survival (% of control) (Yoshida tumor [3]; p.o. 5 × 100 mg/kg (Example 6)): 134 % of control
- Period of survival (% of control) (Yoshida tumor [3]; p.o. 5 × 200 mg/kg (Example 6)): 127 % of control
- Tumor weight (% of control) (Ehrlich tumor (STE); p.o. 8 × 100 mg/kg): 80 % of control
- Tumor weight (% of control) (Ehrlich tumor (STE); p.o. 8 × 200 mg/kg): 70 % of control
- Period of survival (% of control) (Yoshida tumor [4]; p.o. 5 × 100 mg/kg (Example 7)): 124 % of control
- Period of survival (% of control) (Yoshida tumor [4]; p.o. 5 × 200 mg/kg (Example 7)): 158 % of control

Source: patent publication US4720497A, “6-purinyl N-/2-chloroethyl/carbamate and thiocarbamate and process for the preparation thereof” (SPOFA, Spojene Podniky pro Zdravotnickou Vyrobu, priority 1984, dated 1988)
